Measurements published in ChEMBL document CHEMBL4270552, “4-(Phenoxy) and 4-(benzyloxy)benzamides as potent and selective inhibitors of mono-ADP-ribosyltransferase PARP10/ARTD10” (Eur J Med Chem, 2018).

What was measured:
[1] = target: T1, Protein mono-ADP-ribosyltransferase PARP10 (Homo sapiens, UniProt Q53GL7); assay: Inhibition of C-terminal His-tagged human ARTD10 (809 to 1017 residues) expressed in Escherichia coli Rosetta2 (DE3) using SRPK2 as substrate after 13 hrs in presence of NAD+
T1 sequence (Q53GL7 whole entry): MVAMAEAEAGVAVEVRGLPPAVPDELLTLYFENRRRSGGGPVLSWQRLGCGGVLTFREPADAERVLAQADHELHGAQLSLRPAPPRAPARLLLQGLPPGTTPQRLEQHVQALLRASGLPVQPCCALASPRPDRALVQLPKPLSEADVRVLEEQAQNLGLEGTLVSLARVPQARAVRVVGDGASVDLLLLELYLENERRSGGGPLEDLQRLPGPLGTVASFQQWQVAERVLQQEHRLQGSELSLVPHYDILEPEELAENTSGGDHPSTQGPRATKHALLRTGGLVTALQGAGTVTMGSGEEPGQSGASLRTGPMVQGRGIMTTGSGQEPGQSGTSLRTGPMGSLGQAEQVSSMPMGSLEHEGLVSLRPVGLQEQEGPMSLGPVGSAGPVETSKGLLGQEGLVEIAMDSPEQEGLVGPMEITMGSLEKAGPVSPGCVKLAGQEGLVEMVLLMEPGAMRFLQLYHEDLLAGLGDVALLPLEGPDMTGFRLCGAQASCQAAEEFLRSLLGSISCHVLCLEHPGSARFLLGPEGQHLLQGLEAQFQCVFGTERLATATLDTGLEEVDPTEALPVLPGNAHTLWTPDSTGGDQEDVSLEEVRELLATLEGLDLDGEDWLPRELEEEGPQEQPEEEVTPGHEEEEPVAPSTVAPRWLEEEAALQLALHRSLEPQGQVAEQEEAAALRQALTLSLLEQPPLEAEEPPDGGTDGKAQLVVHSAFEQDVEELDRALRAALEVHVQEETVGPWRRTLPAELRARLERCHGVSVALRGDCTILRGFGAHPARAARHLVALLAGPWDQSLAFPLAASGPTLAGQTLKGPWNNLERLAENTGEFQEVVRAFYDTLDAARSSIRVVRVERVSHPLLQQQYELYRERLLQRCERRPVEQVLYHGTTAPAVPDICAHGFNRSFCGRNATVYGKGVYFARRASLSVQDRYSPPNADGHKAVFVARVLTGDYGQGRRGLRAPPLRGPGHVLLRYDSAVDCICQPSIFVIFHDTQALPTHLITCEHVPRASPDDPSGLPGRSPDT

[2] = target: Protein mono-ADP-ribosyltransferase PARP4 (Homo sapiens, UniProt Q9UKK3); assay: Inhibition of N-terminal His-tagged human ARTD4 (250 to 565 residues) expressed in Escherichia coli Rosetta2 (DE3) using TCEP as substrate after 2.5 hrs in presence of NAD+
Protein mono-ADP-ribosyltransferase PARP4, sequence (Q9UKK3 whole entry, the tested form may be a part): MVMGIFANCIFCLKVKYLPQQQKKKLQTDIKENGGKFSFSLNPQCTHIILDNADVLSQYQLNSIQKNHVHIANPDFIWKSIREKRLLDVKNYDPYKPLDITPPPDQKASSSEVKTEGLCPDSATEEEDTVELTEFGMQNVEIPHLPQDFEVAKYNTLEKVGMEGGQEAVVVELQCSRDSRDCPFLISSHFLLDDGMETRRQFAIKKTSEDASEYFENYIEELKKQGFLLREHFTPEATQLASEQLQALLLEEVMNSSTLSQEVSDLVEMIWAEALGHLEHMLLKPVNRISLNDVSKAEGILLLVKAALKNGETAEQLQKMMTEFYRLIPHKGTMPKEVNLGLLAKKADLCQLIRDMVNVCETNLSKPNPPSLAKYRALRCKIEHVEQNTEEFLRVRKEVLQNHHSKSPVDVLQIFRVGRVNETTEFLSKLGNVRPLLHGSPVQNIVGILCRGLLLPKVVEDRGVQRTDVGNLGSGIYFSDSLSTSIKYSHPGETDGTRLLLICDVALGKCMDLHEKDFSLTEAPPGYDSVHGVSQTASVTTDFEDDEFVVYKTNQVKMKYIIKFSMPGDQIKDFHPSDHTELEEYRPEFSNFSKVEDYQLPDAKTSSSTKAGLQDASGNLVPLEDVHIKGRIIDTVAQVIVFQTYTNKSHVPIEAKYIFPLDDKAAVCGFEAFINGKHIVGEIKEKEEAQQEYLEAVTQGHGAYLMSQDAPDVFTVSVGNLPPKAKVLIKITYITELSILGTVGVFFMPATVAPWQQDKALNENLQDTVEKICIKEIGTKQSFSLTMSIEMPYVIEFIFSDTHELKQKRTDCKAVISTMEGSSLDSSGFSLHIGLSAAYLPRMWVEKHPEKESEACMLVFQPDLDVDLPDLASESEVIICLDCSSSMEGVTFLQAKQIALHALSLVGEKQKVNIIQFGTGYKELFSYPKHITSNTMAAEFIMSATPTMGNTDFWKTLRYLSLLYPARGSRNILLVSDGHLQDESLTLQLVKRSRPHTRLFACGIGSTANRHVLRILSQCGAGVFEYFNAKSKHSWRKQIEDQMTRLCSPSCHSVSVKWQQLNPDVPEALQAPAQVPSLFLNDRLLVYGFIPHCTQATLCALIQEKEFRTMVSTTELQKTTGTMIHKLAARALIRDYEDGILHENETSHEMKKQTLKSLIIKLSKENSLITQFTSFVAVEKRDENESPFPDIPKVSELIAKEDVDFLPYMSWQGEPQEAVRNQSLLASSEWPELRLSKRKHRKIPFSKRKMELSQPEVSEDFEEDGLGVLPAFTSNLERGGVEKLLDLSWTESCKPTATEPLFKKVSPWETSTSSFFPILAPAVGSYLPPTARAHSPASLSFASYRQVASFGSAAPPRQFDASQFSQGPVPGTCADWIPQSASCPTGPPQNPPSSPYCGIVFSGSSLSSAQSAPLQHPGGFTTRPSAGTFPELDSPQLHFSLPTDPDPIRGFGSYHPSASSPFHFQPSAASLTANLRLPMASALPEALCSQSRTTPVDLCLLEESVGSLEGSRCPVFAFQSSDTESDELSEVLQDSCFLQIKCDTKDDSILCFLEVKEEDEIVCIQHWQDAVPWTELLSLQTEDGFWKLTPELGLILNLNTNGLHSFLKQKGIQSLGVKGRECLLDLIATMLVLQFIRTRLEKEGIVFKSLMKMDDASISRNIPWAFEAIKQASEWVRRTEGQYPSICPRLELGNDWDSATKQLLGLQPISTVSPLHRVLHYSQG

[3] = target: T2, Protein mono-ADP-ribosyltransferase PARP12 (Homo sapiens, UniProt Q9H0J9); assay: Inhibition of N-terminal His-tagged thioredoxin-fused human ARTD12 (469 to 701 residues) expressed in Escherichia coli Rosetta2 (DE3) after 20 hrs in presence of NAD+
T2 sequence (Q9H0J9 whole entry): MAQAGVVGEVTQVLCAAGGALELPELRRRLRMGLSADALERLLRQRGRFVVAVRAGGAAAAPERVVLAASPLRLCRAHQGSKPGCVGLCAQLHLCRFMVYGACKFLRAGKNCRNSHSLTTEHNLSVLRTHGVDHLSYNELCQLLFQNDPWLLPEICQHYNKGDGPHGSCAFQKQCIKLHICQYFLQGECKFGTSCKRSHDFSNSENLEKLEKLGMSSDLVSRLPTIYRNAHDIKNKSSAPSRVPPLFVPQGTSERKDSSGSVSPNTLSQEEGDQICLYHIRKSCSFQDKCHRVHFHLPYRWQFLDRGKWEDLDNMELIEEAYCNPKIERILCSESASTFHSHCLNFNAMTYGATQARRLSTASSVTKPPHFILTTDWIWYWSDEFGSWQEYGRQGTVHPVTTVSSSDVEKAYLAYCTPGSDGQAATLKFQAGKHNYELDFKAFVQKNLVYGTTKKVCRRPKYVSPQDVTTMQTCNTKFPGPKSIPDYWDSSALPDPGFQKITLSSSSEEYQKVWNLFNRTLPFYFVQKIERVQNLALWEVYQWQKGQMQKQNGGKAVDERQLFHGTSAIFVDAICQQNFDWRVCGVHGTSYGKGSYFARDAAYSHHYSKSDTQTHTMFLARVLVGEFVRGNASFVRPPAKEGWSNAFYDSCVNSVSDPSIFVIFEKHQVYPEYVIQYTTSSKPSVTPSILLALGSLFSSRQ

[4] = target: T3, Protein mono-ADP-ribosyltransferase PARP10 (Homo sapiens) (UniProt Q53GL7)
T3 sequence (whole entry): T1 sequence (Q53GL7 whole entry)
Description: Stabilization of C-terminal His-tagged human ARTD10 (809 to 1017 residues) expressed in Escherichia coli Rosetta2 (DE3) assessed as change in melting temperature at 100 uM by SYPRO Orange-dye based differential scanning fluorimetric method

[5] = target: Protein mono-ADP-ribosyltransferase PARP9 (Homo sapiens) (UniProt Q8IXQ6)
Description: Stabilization of human ARTD9 expressed in Escherichia coli assessed as change in melting temperature at 100 uM by SYPRO Orange-dye based differential scanning fluorimetric method

[6] = target: Zinc finger CCCH-type antiviral protein 1 (Homo sapiens) (UniProt Q7Z2W4)
Zinc finger CCCH-type antiviral protein 1 (Homo sapiens), sequence (Q7Z2W4 whole entry): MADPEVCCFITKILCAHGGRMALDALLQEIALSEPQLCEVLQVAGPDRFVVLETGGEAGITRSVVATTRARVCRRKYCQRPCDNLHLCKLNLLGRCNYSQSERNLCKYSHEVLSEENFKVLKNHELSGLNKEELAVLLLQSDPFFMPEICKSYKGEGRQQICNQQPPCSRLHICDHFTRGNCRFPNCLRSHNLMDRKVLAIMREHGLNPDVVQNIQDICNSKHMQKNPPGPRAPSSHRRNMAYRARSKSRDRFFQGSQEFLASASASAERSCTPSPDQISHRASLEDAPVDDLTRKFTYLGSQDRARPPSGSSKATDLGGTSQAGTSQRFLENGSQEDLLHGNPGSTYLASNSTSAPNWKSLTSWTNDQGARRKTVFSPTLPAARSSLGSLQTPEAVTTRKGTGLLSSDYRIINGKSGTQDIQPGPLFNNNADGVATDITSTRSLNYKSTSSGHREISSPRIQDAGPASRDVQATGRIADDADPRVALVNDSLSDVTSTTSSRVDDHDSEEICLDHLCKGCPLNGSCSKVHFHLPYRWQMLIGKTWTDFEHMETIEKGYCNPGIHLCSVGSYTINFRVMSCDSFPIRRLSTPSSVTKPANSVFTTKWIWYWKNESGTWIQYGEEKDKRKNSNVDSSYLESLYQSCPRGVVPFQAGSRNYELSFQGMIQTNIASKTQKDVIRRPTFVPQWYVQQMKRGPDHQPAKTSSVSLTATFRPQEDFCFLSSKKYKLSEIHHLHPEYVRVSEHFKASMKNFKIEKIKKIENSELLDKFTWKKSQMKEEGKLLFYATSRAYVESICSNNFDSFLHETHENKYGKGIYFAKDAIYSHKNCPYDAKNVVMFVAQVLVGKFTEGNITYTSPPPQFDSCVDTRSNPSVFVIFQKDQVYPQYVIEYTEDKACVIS
Description: Stabilization of human ARTD13 expressed in Escherichia coli assessed as change in melting temperature at 100 uM by SYPRO Orange-dye based differential scanning fluorimetric method

Which IC50 ([1]; read-out: IC50) does the source give for NC(=O)c1ccc(Oc2ccccc2)cc1 here?
The IC50 was 1100 nM.

And the IC50 ([1]; read-out: pIC50 (converted))?
The IC50 was 1150 nM.

How did the IC50 ([1]; read-out: IC50) turn out when NC(=O)c1ccc(COc2ccc(C(N)=O)cc2)cc1 was run?
Its IC50 is 2000 nM.

Cc1ccc(COc2ccc(C(N)=O)cc2)cc1 was tested. Which IC50 ([1]; read-out: IC50) did it give?
Its IC50 is 9300 nM.

What about the IC50 ([1]; read-out: pIC50 (converted)) of the same compound?
The IC50 was 9330 nM.

NC(=O)c1ccc(OCCOc2ccccc2)cc1 was tested. Which IC50 ([1]; read-out: IC50) did it give?
Its IC50 is 1900 nM.

What about the IC50 ([1]; read-out: pIC50 (converted)) of the same compound?
Its IC50 is 1950 nM.

With NC(=O)c1ccc(Oc2ccc(C(N)=O)cc2)cc1 as the compound, how does the IC50 [2] read?
Its IC50 is 23000 nM.

And the IC50 [3]?
Its IC50 is > 10000 nM.

What about the ΔTm [4] of the same compound?
The ΔTm was 3.8 °C.

What about the ΔTm [5] of the same compound?
The ΔTm was 0.72 °C.

What about the ΔTm [6] of the same compound?
Its ΔTm is 0.4 °C.

What does the source list for NC(=O)c1ccc(OCc2ccccc2)cc1?
IC50 ([1]; read-out: IC50): 1400 nM; IC50 ([1]; read-out: pIC50 (converted)): 1350 nM

With Cc1cc(C)cc(COc2ccc(C(N)=O)cc2)c1 as the compound, how does the IC50 ([1]; read-out: IC50) read?
Its IC50 is 4500 nM.

What about the IC50 ([1]; read-out: pIC50 (converted)) of the same compound?
The IC50 was 4570 nM.

Which IC50 ([1]; read-out: IC50) does the source give for NC(=O)c1ccc(OC(=O)c2ccccc2)cc1 here?
Its IC50 is 7300 nM.

What about the IC50 ([1]; read-out: pIC50 (converted)) of the same compound?
Its IC50 is 7240 nM.

COc1ccc(Oc2ccc(C(N)=O)cc2)cc1 was tested. Which IC50 ([1]; read-out: IC50) did it give?
The IC50 was 1400 nM.

What about the IC50 ([1]; read-out: pIC50 (converted)) of the same compound?
Its IC50 is 1380 nM.

Which results are given for NC(=O)c1ccc(OCc2ccccn2)cc1?
IC50 ([1]; read-out: IC50): 1350 nM; IC50 ([1]; read-out: pIC50 (converted)): 1350 nM

With NC(=O)c1ccc(Oc2ccccc2F)cc1 as the compound, how does the IC50 ([1]; read-out: IC50) read?
Its IC50 is 1700 nM.

What about the IC50 ([1]; read-out: pIC50 (converted)) of the same compound?
The IC50 was 1700 nM.

Which IC50 ([1]; read-out: IC50) does the source give for NC(=O)c1ccc(OCc2cccc3ccccc23)cc1 here?
The IC50 was 1400 nM.

And the IC50 ([1]; read-out: pIC50 (converted))?
The IC50 was 1450 nM.

How did the IC50 ([1]; read-out: IC50) turn out when NC(=O)c1ccc(OCc2cccc(F)c2)cc1 was run?
The IC50 was 3300 nM.

And the IC50 ([1]; read-out: pIC50 (converted))?
Its IC50 is 3310 nM.

NC(=O)c1ccc(OCc2ccccc2Br)cc1 was tested. Which IC50 ([1]; read-out: IC50) did it give?
Its IC50 is 3800 nM.

What about the IC50 ([1]; read-out: pIC50 (converted)) of the same compound?
The IC50 was 3800 nM.

How did the IC50 ([1]; read-out: IC50) turn out when CC(C)Oc1ccc(C(N)=O)cc1 was run?
Its IC50 is 1300 nM.

What about the IC50 ([1]; read-out: pIC50 (converted)) of the same compound?
The IC50 was 1260 nM.

With NC(=O)c1ccc(OCc2ccc(F)cc2)cc1 as the compound, how does the IC50 ([1]; read-out: IC50) read?
The IC50 was 7900 nM.

What about the IC50 ([1]; read-out: pIC50 (converted)) of the same compound?
Its IC50 is 7940 nM.

For CCOc1ccc(C(N)=O)cc1, which IC50 ([1]; read-out: IC50) is on record?
Its IC50 is 3500 nM.

What about the IC50 ([1]; read-out: pIC50 (converted)) of the same compound?
Its IC50 is 3390 nM.

NC(=O)c1ccc(Oc2ccc(N)cc2)cc1 was tested. Which IC50 ([1]; read-out: IC50) did it give?
Its IC50 is 1300 nM.

And the IC50 ([1]; read-out: pIC50 (converted))?
The IC50 was 1260 nM.

Which IC50 ([1]; read-out: IC50) does the source give for NC(=O)c1ccc(OC2CCC2)cc1 here?
The IC50 was 720 nM.

What about the IC50 ([1]; read-out: pIC50 (converted)) of the same compound?
The IC50 was 724 nM.

NC(=O)c1ccc(Oc2ccc(O)cc2)cc1 was tested. Which IC50 ([1]; read-out: IC50) did it give?
The IC50 was 1800 nM.

What about the IC50 ([1]; read-out: pIC50 (converted)) of the same compound?
Its IC50 is 1740 nM.
